According to ChEMBL document CHEMBL4325834, “De Novo Molecular Design of a Novel Octapeptide That Inhibits In Vivo Melanogenesis and Has Great Transdermal Ability” (J Med Chem, 2018):
Active and inactive are the calls of the source. No cut-off for these calls is given here. Where a SMILES comes first, the peptide text is derived from it.

What was measured:
[1] = Reducing power of the compound assessed as reducing Fe3+ power at 80 uM using K3Fe(CN)6 in pH 6.6 phosphate buffer relative to control
[2] = Antioxidant activity assessed as ABTS radical scavenging activity at 80 uM after 10 mins relative to control; type: functional
Tyrosinase = biological target: T1, Tyrosinase (Agaricus bisporus, UniProt O42713); assay: Inhibition of mushroom tyrosinase using L-dopa as substrate assessed as reduction in dopachrome production after 20 mins by spectrophotometry
T1 sequence (O42713 whole entry): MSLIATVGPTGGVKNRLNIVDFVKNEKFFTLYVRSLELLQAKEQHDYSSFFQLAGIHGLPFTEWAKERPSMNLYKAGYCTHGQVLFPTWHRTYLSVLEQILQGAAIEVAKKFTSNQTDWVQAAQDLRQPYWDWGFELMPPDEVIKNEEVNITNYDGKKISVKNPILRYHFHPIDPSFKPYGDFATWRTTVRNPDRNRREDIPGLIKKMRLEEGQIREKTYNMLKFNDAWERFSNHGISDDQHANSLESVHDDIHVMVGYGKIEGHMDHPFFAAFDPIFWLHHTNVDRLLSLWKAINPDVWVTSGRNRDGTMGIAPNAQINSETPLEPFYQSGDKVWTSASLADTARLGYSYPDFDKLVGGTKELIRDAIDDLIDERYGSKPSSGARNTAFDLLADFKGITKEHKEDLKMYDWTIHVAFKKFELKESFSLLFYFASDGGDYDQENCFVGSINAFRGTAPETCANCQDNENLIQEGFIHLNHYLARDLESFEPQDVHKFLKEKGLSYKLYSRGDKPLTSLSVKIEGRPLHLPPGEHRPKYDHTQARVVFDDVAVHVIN

[3] = Antioxidant activity assessed as DPPH free radical scavenging activity at 80 uM after 30 mins relative to control; type: functional
HaCaT = assay: Cytotoxicity against human HaCaT cells up to 150 uM by MTT assay relative to control; type: cell-based
[4] = Hemolytic activity against human erythrocytes assessed as amount of hemoglobin released from lysed cells up to 150 uM relative to control; type: ADME, cell-based, Erythrocyte; settings: read-out: Activity
B16 [5] = assay: Cytotoxicity against mouse B16 cells up to 150 uM by MTT assay relative to control; type: cell-based
[6] = biological target: T2, Tyrosinase (Mus musculus) (UniProt P11344); assay: Inhibition of TYR activity in mouse B16 cells assessed as melanin levels post exfoliation at 20 uM after 72 hrs by spectrophotometric analysis relative to control; type: cell-based; set-up: scale not given: the % may be the effect or the level left
T2 sequence (whole entry): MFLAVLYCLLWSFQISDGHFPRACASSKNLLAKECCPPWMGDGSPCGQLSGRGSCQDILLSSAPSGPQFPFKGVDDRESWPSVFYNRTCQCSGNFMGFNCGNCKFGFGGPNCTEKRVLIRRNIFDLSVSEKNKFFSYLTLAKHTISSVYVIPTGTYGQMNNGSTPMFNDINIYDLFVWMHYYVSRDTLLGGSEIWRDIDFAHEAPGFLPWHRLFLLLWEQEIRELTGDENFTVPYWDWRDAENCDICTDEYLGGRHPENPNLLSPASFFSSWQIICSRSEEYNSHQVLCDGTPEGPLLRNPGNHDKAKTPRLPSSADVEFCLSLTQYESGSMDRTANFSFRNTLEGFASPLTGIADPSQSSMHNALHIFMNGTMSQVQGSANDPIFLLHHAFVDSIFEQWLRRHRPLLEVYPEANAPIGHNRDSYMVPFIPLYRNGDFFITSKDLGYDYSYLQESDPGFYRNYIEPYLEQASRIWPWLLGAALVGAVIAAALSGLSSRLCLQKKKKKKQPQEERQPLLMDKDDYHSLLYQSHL

B16 [7] = assay: Downregulation of TYR protein expression in mouse B16 cells after 72 hrs by Western blot analysis; type: functional, cell-based
[8] = biological target: T2, Tyrosinase (Mus musculus); assay: Inhibition of TYR activity in mouse B16 cells 20 uM using L-dopa as substrate after 72 hrs relative to control; type: cell-based
[9] = biological target: T2, Tyrosinase (Mus musculus); assay: Inhibition of TYR activity in mouse B16 cells assessed as effect on pallet after exfoliation at 20 uM preincubated for 72 hrs followed L-dopa substrate addition and measured after 4 hrs by fluorescence microscopy; type: cell-based
[10] = biological target: T2, Tyrosinase (Mus musculus); assay: Inhibition of TYR activity in mouse B16 cells assessed as increase in whitening at 20 uM preincubated for 72 hrs followed L-dopa substrate addition and measured after 4 hrs by fluorescence microscopy; type: cell-based
B16 [11] = assay: Downregulation of MITF protein expression in mouse B16 cells after 72 hrs by Western blot analysis; type: functional, cell-based

CC[C@H](C)[C@H](NC(=O)[C@H](CS)NC(=O)[C@H](C)NC(=O)[C@@H](NC(=O)[C@H](CCCNC(=N)N)NC(=O)[C@H](C)NC(=O)[C@@H](NC(=O)[C@H](CC(N)=O)NC(=O)[C@@H](NC(=O)[C@H](CCSC)NC(=O)[C@H](Cc1c[nH]c2ccccc12)NC(=O)[C@H](Cc1cnc[nH]1)NC(=O)[C@@H](NC(=O)[C@@H](N)CS)C(C)C)[C@@H](C)O)[C@@H](C)O)[C@@H](C)O)C(=O)N[C@@H](C)C(=O)N1CCC[C@H]1C(=O)O (H-CVHWMTNTARTACIAP-OH)
Activity [1]: 0.34
Activity [2]: 82%
IC50 (Tyrosinase): 176 µM
Activity [3]: 21%

CC[C@H](C)[C@H](NC(=O)[C@H](CS)NC(=O)[C@@H](NC(=O)[C@@H](NC(=O)[C@H](CCCNC(=N)N)NC(=O)[C@H](C)NC(=O)[C@@H](NC(=O)[C@H](CC(N)=O)NC(=O)[C@@H](NC(=O)[C@H](CCCNC(=N)N)NC(=O)[C@H](Cc1ccccc1)NC(=O)[C@H](CCCNC(=N)N)NC(=O)[C@@H](NC(=O)[C@@H](N)CS)C(C)C)[C@@H](C)O)[C@@H](C)O)[C@@H](C)O)C(C)C)C(=O)N[C@@H](C)C(=O)N1CCC[C@H]1C(=O)O (H-CVRFRTNTARTVCIAP-OH)
Activity [1]: 0.18
Activity [2]: 36%
IC50 (Tyrosinase): 166 µM
Activity (HaCaT): 15%
hemolysis [4]: 5%
Activity [3]: 43%
Activity (B16 [5]): 13%

CC(C)[C@H](NC(=O)[C@H](CCCNC(=N)N)NC(=O)[C@H](CS)NC(=O)[C@H](CO)NC(=O)[C@H](CCCNC(=N)N)NC(=O)[C@H](Cc1ccccc1)NC(=O)[C@@H](N)Cc1ccccc1)C(=O)N[C@@H](CS)C(=O)O (H-FFRSCRVC-OH)
Activity [1]: 0.19
Activity [2]: 66%
IC50 (Tyrosinase): 90 µM
Activity (HaCaT): 5%
hemolysis [4]: 2%
Activity [3]: 95%
Activity (B16 [5]): 5%

CC(C)[C@H](NC(=O)[C@H](CO)NC(=O)[C@H](CCCNC(=N)N)NC(=O)[C@H](CS)NC(=O)[C@H](CO)NC(=O)[C@@H](NC(=O)[C@H](CCCNC(=N)N)NC(=O)[C@H](Cc1ccccc1)NC(=O)[C@@H](N)Cc1ccccc1)[C@@H](C)O)C(=O)N[C@@H](CS)C(=O)O (H-FFRTSCRSVC-OH)
Activity [1]: 0.28
Activity [2]: 58%
IC50 (Tyrosinase): 127 µM
Activity (HaCaT): 13%
hemolysis [4]: 7%
Activity [3]: 90%
Activity (B16 [5]): 9%

C[C@@H](O)[C@H](NC(=O)[C@H](CO)NC(=O)[C@H](Cc1ccccc1)NC(=O)[C@@H](N)Cc1ccccc1)C(=O)N[C@@H](CO)C(=O)N[C@@H](CS)C(=O)N[C@@H](CCCNC(=N)N)C(=O)N[C@@H](CO)C(=O)NCC(=O)N[C@@H](CS)C(=O)O (H-FFSTSCRSGC-OH)
Activity [1]: 0.21
Activity [2]: 80%
IC50 (Tyrosinase): 187 µM
Activity [3]: 45%

C[C@H](NC(=O)[C@H](CO)NC(=O)[C@H](CS)NC(=O)[C@H](CO)NC(=O)[C@@H](NC(=O)[C@H](CCCNC(=N)N)NC(=O)[C@@H](N)Cc1ccccc1)[C@@H](C)O)C(=O)N[C@@H](CS)C(=O)O (H-FRTSCSAC-OH)
Activity [1]: 0.23
Activity [2]: 62%
IC50 (Tyrosinase): 78 µM
Activity (HaCaT): 7%
hemolysis [4]: 2%
Activity [3]: 73%
Activity (B16 [5]): 8%

CC[C@H](C)[C@H](NC(=O)[C@H](C)NC(=O)[C@@H]1CCCN1C(=O)[C@@H](NC(=O)[C@@H](N)Cc1ccccc1)C(C)C)C(=O)N[C@@H](CC(C)C)C(=O)N[C@@H](CS)C(=O)N[C@@H](CO)C(=O)N[C@H](C(=O)N[C@@H](CC(C)C)C(=O)N[C@@H](CCCCN)C(=O)N[C@H](C(=O)N[C@@H](CS)C(=O)O)[C@@H](C)O)[C@@H](C)CC (H-FVPAILCSILKTC-OH)
Activity [1]: 0.23
Activity [2]: 48%
IC50 (Tyrosinase): 147 µM
Activity (HaCaT): 11%
hemolysis [4]: 4%
Activity [3]: 74%
Activity (B16 [5]): 12%

CC(C)[C@H](NC(=O)[C@H](CCCNC(=N)N)NC(=O)[C@H](Cc1ccccc1)NC(=O)[C@H](CS)NC(=O)[C@H](CCCNC(=N)N)NC(=O)[C@H](CO)NC(=O)[C@@H](N)[C@@H](C)O)C(=O)N[C@@H](CS)C(=O)O (H-TSRCFRVC-OH)
Activity [1]: 0.24
Activity [2]: 50%
IC50 (Tyrosinase): 106 µM
Activity (HaCaT): 9%
hemolysis [4]: 1%
Activity [3]: 99%
Activity (B16 [5]): 11%

CC[C@H](C)[C@H](NC(=O)[C@H](CS)NC(=O)[C@H](CCCNC(=N)N)NC(=O)[C@H](CO)NC(=O)[C@@H](N)[C@@H](C)O)C(=O)N[C@@H](Cc1ccccc1)C(=O)N[C@@H](Cc1ccc(O)cc1)C(=O)N[C@@H](CCCNC(=N)N)C(=O)N[C@@H](CCCNC(=N)N)C(=O)N[C@@H](CS)C(=O)N[C@H](C(=O)N[C@@H](CS)C(=O)N[C@@H](CO)C(=O)O)C(C)C (H-TSRCIFYRRCVCS-OH)
Activity [1]: 0.24
Activity [2]: 61%
IC50 (Tyrosinase): 128 µM
Activity (HaCaT): 29%
hemolysis [4]: 21%
Activity [3]: 60%
Activity (B16 [5]): 27%

CC[C@H](C)[C@H](NC(=O)[C@H](CS)NC(=O)[C@H](CCCNC(=N)N)NC(=O)[C@H](CO)NC(=O)[C@@H](N)[C@@H](C)O)C(=O)N[C@@H](Cc1ccccc1)C(=O)N[C@@H](Cc1ccc(O)cc1)C(=O)N[C@@H](CCCNC(=N)N)C(=O)N[C@@H](CCCNC(=N)N)C(=O)N[C@@H](CCCCN)C(=O)N[C@@H](CCCCN)C(=O)N[C@@H](CS)C(=O)N[C@@H](CO)C(=O)O (H-TSRCIFYRRKKCS-OH)
Activity [1]: 0.21
Activity [2]: 85%
IC50 (Tyrosinase): 153 µM
Activity [3]: 55%

CC(C)[C@H](N)C(=O)N[C@H](C(=O)N[C@@H](CCCCN)C(=O)N[C@@H](CS)C(=O)N[C@@H](CO)C(=O)N[C@@H](Cc1ccccc1)C(=O)N[C@@H](CCCNC(=N)N)C(=O)N1CCC[C@H]1C(=O)NCC(=O)N[C@@H](CO)C(=O)N1CCC[C@H]1C(=O)N[C@@H](C)C(=O)N1CCC[C@H]1C(=O)N[C@@H](CCCNC(=N)N)C(=O)N[C@@H](CS)C(=O)N[C@@H](CCCCN)C(=O)O)C(C)C (H-VVKCSFRPGSPAPRCK-OH)
Activity [1]: 0.18
Activity [2]: 25%
IC50 (Tyrosinase): 199 µM
Activity (HaCaT): 10%
hemolysis [4]: 5%
Activity [3]: 56%
Activity (B16 [5]): 13%

OC[C@H]1O[C@@H](Oc2ccc(O)cc2)[C@H](O)[C@@H](O)[C@@H]1O [ARBUTIN]
Activity [6]: 76.3%
inhibition (B16 [7]): inactive
Activity [1]: 0.12
inhibition [8]: 10.4%
Activity [2]: 53%
Activity (HaCaT): 31%
Activity [9]: Active
hemolysis [4]: 27%
Activity [3]: 22%
Activity (B16 [5]): 29%
inhibition [10]: Active
inhibition (B16 [11]): inactive

H-TRAFRCVS-OH
Activity [1]: 0.25
Activity [2]: 56%
IC50 (Tyrosinase): 220 µM
Activity (HaCaT): 11%
hemolysis [4]: 1%
Activity [3]: 80%
Activity (B16 [5]): 10%
